Test results as given in patent publication US9028856B2, “Synergistic pesticide compositions” (priority 2008, dated 2015).

How the values were obtained:
[1] = tested on: Red Imported Fire ant (RIFA), Solenopsis invicta; experiment: Knockdown/mortality of ant workers under continuous exposure on treated glazed tile; assay type: in vivo; details: for Average % Mortality after 1 hr / Average % Mortality after 1.5 hr / Average % Mortality after 2 hr / Average % Mortality after 3 hr / Average % Mortality after 30 min: Table 60, Red Imported Fire ant, continuous exposure; for Average % Mortality after 30 min: adjuvant = Compound A 1% + Compound B 0.5%
Description: Treatments were allowed to dry overnight. […] Treatments were replicated minimum three times.
(§1) Treatments were allowed to dry overnight. […] Treatments were replicated a minimum of three times.

[2] = tested on: bait averse/resistant German cockroach (IHOP strain), Blattella germanica; experiment: Knockdown/mortality of male cockroaches under continuous exposure on treated glazed tile; assay type: in vivo; details: German cockroach IHOP
Experimental: Treatments were allowed to dry overnight. […] Treatments were replicated a minimum of three times. Evaluations for cockroach knockdown/mortality were made at various intervals for 1 hour and at 24 hours after exposure.
Treatments were allowed to dry overnight. […] Evaluations for cockroach knockdown/mortality were made at various intervals and at 60 minutes after exposure.
as §1

[3] = tested on: susceptible/normal German cockroach (Monheim strain), Blattella germanica; experiment: as above; assay type: in vivo; details: glazed tile; for Average % Knockdown & Mortality after 3 hr / Average % Knockdown & Mortality after 5 hr / Average % Knockdown & Mortality after 24 hr / Average % Knockdown & Mortality after 1 hr: Table 61, German cockroach (Monheim), continuous exposure; for Average % Knockdown & Mortality after 1 hr: adjuvant = Compound A 1% + Compound B 0.5%
Method in brief: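 Male cockroaches continuously exposed on treated glazed tile, dried overnight before exposure; at least three replicates. Knockdown/mortality scored at intervals from 5 or 10 min, over runs lasting 20 min to 24 h depending on test.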

[4] = tested on: housefly, Musca domestica; experiment: Housefly continuous exposure on treated glazed tile (paper cup arena); assay type: in vivo; details: Table 58, housefly, glazed tile, continuous exposure; for Average % Knockdown & Mortality after 1 hr: adjuvant = Compound A 1% + Compound B 0.5%
Description: Treatments were allowed to dry overnight. The housefly testing arena consisted of a 16 oz. paper cup where the bottom of the cup was removed and replaced with a piece of standard window screen. Ten adult houseflies (mixed ratio) were placed in each cup and covered with a 4″×5″ index card to prevent escape. Houseflies were continuously exposed to the treatment by inverting the testing arena and sliding the cup from the index card to the treated tile surface. Treatments were replicated a minimum of three times.

[5] = tested on: Argentine ant, Linepithema humile; experiment: Knockdown/mortality of ant workers under continuous exposure on treated glazed tile; details: continuous exposure; for Average % Mortality after 15 min: adjuvant = Compound A 1% + Compound B 0.5%
Method in brief: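 0.5% AI imidacloprid in acetone, alone or with 0.1, 1.0 or 5.0% additive (benzenepropanoic acid, oleic acid, methyl oleate, methyl linoleate, methyl palmitate or BHA), 1 ml dried overnight on glazed tile (~161 cm^2). Ten workers confined under continuous exposure, water from 3 h; knockdown/mortality scored at intervals and 24 h; ≥3 replicates.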

[6] = tested on: Odorous House ant, Tapinoma sessile; experiment: as above; assay type: in vivo; details: Table 59, Odorous House ant, glazed tile, continuous exposure; for Average % Knockdown & Mortality after 15 min: adjuvant = Compound A 1% + Compound B 0.5%
Method in brief: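 Treatments applied to about 161 cm2 glazed tile and dried overnight, with at least three replicates.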

[7] = Table 57, Argentine ant, glazed tile

SMILES	Average % Knockdown & Mortality after 3 hr [4] [%]	Average % Knockdown & Mortality after 5 hr [4] [%]	Average % Knockdown & Mortality after 7 hr [4] [%]	Average % Knockdown & Mortality after 24 hr [4] [%]	Average % Knockdown & Mortality after 1 hr [4] [%]	Average % Mortality after 1 hr ([1]; glazed tile) [%]	Average % Mortality after 1.5 hr ([1]; glazed tile) [%]	Average % Mortality after 2 hr ([1]; glazed tile) [%]	Average % Mortality after 3 hr ([1]; glazed tile) [%]	Average % Mortality after 30 min ([1]; glazed tile) [%]	Average % Mortality after 30 min [5, 7] [%]	Average % Mortality after 45 min [5, 7] [%]	Average % Mortality after 60 min [5, 7] [%]	Average % Mortality after 15 min [5, 7] [%]	Average % Knockdown & Mortality after 3 hr [3] [%]	Average % Knockdown & Mortality after 5 hr [3] [%]	Average % Knockdown & Mortality after 24 hr [3] [%]	Average % Knockdown & Mortality after 1 hr [3] [%]	Average % Knockdown & Mortality after 30 min [6] [%]	Average % Knockdown & Mortality after 45 min [6] [%]	also measured
CC1(C)C(C=C(Cl)Cl)C1C(=O)OCc1cccc(Oc2ccccc2)c1 (stereo not shown) [permethrin, reference compound]	–	–	–	–	–	–	–	–	–	–	–	–	–	–	–	–	–	–	–	–	toxicity / efficacy of the substance alone (summary in words) ([1]; RIFA, glazed tile): active; time at which near 100% mortality was achieved ([1]; permethrin 0.5% AI with or without adjuvant (FIG. 39)): about 13 minutes; toxicity / efficacy of the substance alone (summary in words) [2]: very fast acting; toxicity / efficacy of the substance alone (summary in words) ([3]; German cockroach Monheim): effective
CC[S+]([O-])c1c(C#N)nn(-c2c(Cl)cc(C(F)(F)F)cc2Cl)c1N (stereo not shown) [Ethiprole (0.1%)]	0	3	10	100	0	0	0	0	10	0	0	0	0	0	27	33	80	0	0	0	Average % Knockdown & Mortality after 60 min [6]: 0%; Average % Knockdown & Mortality after 2 hr [6]: 0%; Average % Knockdown & Mortality after 15 min [6]: 0%
CC[S+]([O-])c1c(C#N)nn(-c2c(Cl)cc(C(F)(F)F)cc2Cl)c1N (stereo not shown) [Ethiprole (0.01%)]	0	0	3	100	0	0	0	0	3	0	0	0	0	0	0	7	13	0	0	0	Average % Mortality after 10 min ([5]; Table 54, Trial 1, acetone solution on glazed tile): 0%; Average % Mortality after 30 min ([5]; Table 54, Trial 1, glazed tile): 0%; Average % Mortality after 60 min ([5]; Table 54, Trial 1, glazed tile): 0%; Average % Mortality after 90 min ([5]; Table 54, Trial 1, glazed tile): 0%; Average % Mortality after 2 hr ([5]; Table 54, Trial 1, glazed tile): 0%; Average % Mortality after 4 hr ([5]; Table 54, Trial 1, glazed tile, 4 hr): 16%; Average % Mortality after 24 hr ([5]; Table 54, Trial 1, glazed tile): 100%; Average % Mortality after 10 min ([5]; Table 55, Trial 2, glazed tile): 0%; Average % Mortality after 30 min ([5]; Table 55, Trial 2, glazed tile): 0%; Average % Mortality after 60 min ([5]; Table 55, Trial 2, glazed tile): 0%; Average % Mortality after 90 min ([5]; Table 55, Trial 2, glazed tile): 0%; Average % Mortality after 2 hr ([5]; Table 55, Trial 2, glazed tile): 0%; Average % Mortality after 3 hr ([5]; Table 55, Trial 2, glazed tile, 3 hr): 6%; Average % Mortality after 24 hr ([5]; Table 55, Trial 2, glazed tile): 72%; Average % Knockdown & Mortality after 60 min [6]: 0%; Average % Knockdown & Mortality after 2 hr [6]: 3%; Average % Knockdown & Mortality after 15 min [6]: 0%
